These results are taken from patent US20240376098A1, “METHODS OF TREATMENT USING BCN057, BCN077 AND ANALOGS” (BCN Biosciences L.L.C., priority 2021, published 2024).

One data set concerns Panc-1 cells. Description: RealTime-Glo Annexin V Apoptosis and Necrosis Assay. In kind it is cell-based, human. To be noted: serial dilutions, 10 minutes to 6 hours. The procedure: To validate the involvement of apoptosis in BCN057 induced cell death, the Panc1 cells with/without BCN057 were subjected to Anexin V staining. Anexin V staining was performed up to 6 hours and measured as a function of dose response of BCN057. […] FIG. 2B is a graph of Annexin V Apoptosis and Necrosis Assay in Panc-1 cells. Panc-1 cells were exposed to serial dilutions of BCN057 in the presence or absence of the RealTime-Glo™ Annexin V Apoptosis and Necrosis Assay Reagent. The plate was incubated at 37° C./5% CO2 and luminescence (Annexin V binding) was measured over a period of six hours. […] Apoptosis appeared to increase with increasing concentrations of BCN057.

The subject of data set [1] is KRASG13R mutant MC38 tumor cell line. To be noted: cited from earlier work.
The subject of another data set is Lgr5+ ISCs. Description: Lgr5+ intestinal stem cells in 5FU treated Lgr5-Cre-ERT-GFP mice. In kind it is in vivo. To be noted: 5FU treated mice receiving BCN057. The procedure: 5FU is a component of FOLFIRINOX and the active agent metabolized from Capecitabine (Xeloda®). To, examine the effect of BCN057 against chemo induced toxicity in Lgr5+ ISCs, Lgr5-Cre-ERT-GFP mice were pre-treated with 5FU as reported and then subjected to BCN057 treatment.
Stains of GI crypts with green=LGR5+ stem cells. Mice were treated with 5FU and 5FU+BCN057 for 5 days. BCN057 was administered for two extra days after 5FU treatment. Small intestine samples were harvested and stained for LGR5 at 3 days after the last 5FU injection. FIG. 5D is a histogram of the quantitation by % of LGR5+ cells remaining in […] sections at the crypt base showing prevention of 5-FU induced apoptosis in LGR5+ stem cells in GI.

Data set [2] relates to LGR5 and BMI1 in Panc-1 cells. Description: qPCR of stem cell markers LGR5 and BMI1 in Panc-1 cells. In kind it is cell-based, human. To be noted: 10 μm. The procedure:
QPCR: To compare the mRNA levels of BMI1 and LGR5 target genes in Panc-1 cells treated with BCN057 or vehicle. Quantitative PCR (qPCR) was used to measure the expression of the stem cell markers LGR5, and BMI1 which was detected by real-time PCR using the primer pairs listed in Table 1. Total RNA was extracted using TRIzol kit (Invitrogen, CA, USA)
Primers used for qPCR of LGR5 and BMI1 in pancreatic cancer cells Panc-1 treated with 10 μM of BCN057 or vehicle.
Others have implemented BMI1 as a key contributor to chemoresistance and invasiveness which is measurable in Panc-1.

Data set [3] relates to irradiated mouse T-lymphocytes. Description: In vitro viability assay on irradiated T-lymphocytes. The settings on record: T-lymphocyte. In kind it is cell-based. The procedure:
FIG. 7A is a western blot showing PD-1 expression on human T-lymphocytes co-cultured with Panc-1 cells with no drug (vehicle) or 1, 6 and 12 hours with BCN057. FIG. 7B is a graph showing that the inhibition of GSK3b induces survival of Lymphocytes when exposed to radiation.
FIG. 8 is western blot showing PDL-1 expression (red arrow) on Panc-1 cells co cultured with human T-lymphocytes with no drug (vehicle) or 2.5, 5, 7.5 and 10 hrs. with BCN057. […] In a separate study using mouse T-lymphocytes, 2Gy radiation was used to induce apoptosis with increasing amounts of BCN057.

Data set [4] is described as follows: Solubility in aqueous formulations. In kind it is physicochemical. To be noted: 30 wt % Captisol (SBE-beta-CD) and 100 mM MSA.
Another data set concerns the target T1, GSK3b (Homo sapiens, UniProt P49841).
T1 construct: endogenous in cells; host or cells: Panc-1
In words: Western blot of GSK3b phosphorylation at S-9 in Panc1 cells. It counts as cell-based. The settings on record: 10 μM BCN057, over time. The procedure:
(§1) Western Blot: Cells were harvested and lysed in cell lysis buffer on ice for 15 minutes and the lysate was centrifuged at 13,000 rpm at 4° C. for 10 minutes. The supernatant was transferred into a new tube for BCA protein quantification assay (Thermo Fisher Scientific) and the samples were normalized. 3× loading buffer (Cell Signaling) was added the protein sample and boiled for 5 minutes. The samples were used for SDS-PAGE analysis and transferred to nitrocellulose membrane. The membrane was blocked with 5% BSA at room temperature for 1 hour and incubated with primary antibody at 4° C. overnight. The membrane was washed with 1×TBST 5 minutes for 3 times and incubated with horseradish peroxidase-conjugated secondary antibody for 1 hour at room temperature. The protein was visualized by SuperSignal West Pico Stable Peroxide Solution (Thermo Fisher Scientific). The blot was visualized by chemiluminescence using a BioRad Versadoc Imaging System.
To investigate the role BCN057 may have in the restoration of apoptosis in this cell line, the GSK3b-c-Jun relationship was assessed as it has been directly linked to apoptosis. Others have reported a link with GSK3b and c-Jun and apoptosis along with the fact that […] is over expressed in the oncogenic KRAS phenotype.

Data set [5] deals with c-Jun in non-transformed HEK298 epithelial cells. In words: c-Jun T 91/93 phosphorylation in non-transformed cells. The settings on record: data not shown. In kind it is cell-based. The procedure: Phosphorylation at T 91/93 in c-Jun was measured as a function of total c-Jun. Significant phosphorylation at T 91/93 was observed which has been reported to be associated with the activation of c-Jun's pro-apoptotic activity.

The test system of another data set is PTEN. In words: Western blot of PTEN protein expression in Panc-1 cells. In kind it is cell-based, human. The settings on record: 10 μM, 20 minutes to 24 hours. The procedure: as §1, with “System. In KRAS dependent tumors, c-Jun acts to suppress Phosphatase and tensin homolog (PTEN) expression at the promoter level and that suppression of PTEN expression is essential for anti-apoptosis and cellular transformation by oncogenic RAS. Thus, we investigated PTEN expression levels in response to BCN057. […] FIG. 4A is a western blot of Phospho-c-Jun (T-91/93). […] Phosphorylation of c-Jun at T-91/93 is known to induce apoptosis. […]” for “System.”

For orientation: EC50 means the concentration that produces a half-maximal response. Low readings indicate a more potent agent, high ones a less potent agent.

T1 sequence (P49841 whole entry): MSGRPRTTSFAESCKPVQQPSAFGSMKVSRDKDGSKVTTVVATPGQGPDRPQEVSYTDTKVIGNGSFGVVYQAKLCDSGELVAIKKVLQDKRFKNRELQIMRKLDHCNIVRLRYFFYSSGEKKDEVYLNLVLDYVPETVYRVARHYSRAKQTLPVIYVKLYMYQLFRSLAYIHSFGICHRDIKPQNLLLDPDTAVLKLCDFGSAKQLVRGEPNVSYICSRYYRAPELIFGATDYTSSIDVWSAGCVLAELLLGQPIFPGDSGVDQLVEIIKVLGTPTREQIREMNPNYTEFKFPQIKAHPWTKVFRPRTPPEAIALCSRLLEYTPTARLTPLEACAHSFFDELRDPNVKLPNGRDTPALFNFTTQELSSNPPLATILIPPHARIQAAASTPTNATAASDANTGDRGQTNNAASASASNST

For `COc1ccc2cc(-c3nc4ccc(C)cn4c3NCc3ccco3)c(=O)[nH]c2c1` [BCN057, 3-[(Furan-2-ylmethyl)-amino]-2-(7-methoxy-2-oxo-1,2-dihydro-quinolin-3-yl)-6-methyl-imidazo[1,2-a]pyridin-1-ium], in the data set on Panc-1 cells, the “Apoptosis (Annexin V binding, luminescence)” value was “Dose and time dependent increase in apoptosis”. For the same compound, the Tolerated radiation dose entry in data set [1] (BCN057 with radiation treatment versus radiation alone) is on record as “able to tolerate much higher radiation doses”. Also, the Tumor burden result in [1] (mice receiving BCN057 versus control) was “significantly lower tumor burden than control”. The “Lgr5+ve ISCs in jejunal section” value in the data set on Lgr5+ ISCs was “significant presence of Lgr5+ve ISCs”. In data set [2], the “Abundance of LGR5 and BMI1 cell populations” value is listed as “no significant increase in the abundance”. Further, the concentration giving a half-maximal response (EC50) in data set [3] (light or radiation study, viability of irradiated mouse T-lymphocytes) was 5.34 µM; in [3] (preservation of mouse T-lymphocytes, 2Gy radiation), 5.34 µM. For the same compound, the Solubility result in [4] is on record as “excellent solubility at up to pH 4.1 or higher”. On GSK3b, the “GSK3b phosphorylation at S-9” value is listed as “rapid induction of phosphorylation at S-9”. Besides, the “c-Jun pro-apoptotic activity (T 91/93 phosphorylation)” value in [5] is on record as “not found to be induced”. In the data set with PTEN, the PTEN protein expression result was “increased expression up to 1 hr of PTEN protein”.
